Results published in patent US20210213104A1, “GLUCAGON AND GLP-1 CO-AGONISTS FOR THE TREATMENT OF CHRONIC KIDNEY DISEASE AND DIABETIC KIDNEY DISEASE IN TYPE 2 DIABETES” (MEDIMMUNE LIMITED, priority 2020, published 2021).

Tested on: subjects with T2DM and renal impairment
Assay: Phase 2a: continuous glucose monitoring (CGM)
Assay type: in vivo, human
Settings: ITT; for Time in target range, LS Mean Change / Percentage of Time CGM Glucose Within Target Range (70-180 mg/dL), Mean / Percentage of Time CGM Glucose Within Target Range (70-180 mg/dL), Median / Time in target range, Change from Baseline (Days −8 to −2), Mean / Time in target range, Change from Baseline (Days −8 to −2), Median / Time in target range, Difference in LS Mean Change (vs Placebo): 100 μg Dose (Days 5 to 11)
Method: Cotadutide was titrated from 50 μg up to 300 μg and administered once daily by subcutaneous (SC) injection over 32 days.
Cotadutide was administered at 50 μg once daily for 4 days, followed by 100 μg daily for 7 days, 200 μg daily for 7 days, and 300 μg daily for 14 days (n=20). Placebo was administered one daily for 32 days (n=20). Cotadutide and placebo were administered in the morning. Dosing commenced following predose baseline vital signs, blood tests (including HbA1c), an electrocardiogram (ECG), body weight measurement, and bioimpedance spectroscopy (BIS). Subjects then returned for daily dosing or remained overnight locally until Day 5, and thereafter, had visits at weekly intervals until a maintenance dose of 300 μg was established. Thus, Cotadutide or placebo was administered at the study site by study personal for the first four doses and on site on Days 5, 12, 19, and 32. At all other times, subjects preformed dosing at home.
A Freestyle Libre® Pro CGM device was used to measure interstitial glucose levels. […] Data generated by CGM was used at visits to adjust insulin doses and other treatments.
The CGM sensor, which is a small plastic circular device of 35 mm diameter and 5 mm depth, was applied to the back of the upper arm. Subjects wore the CGM sensor continuously up until the time of a sensor change, which was to occur within 14 days, and they were advised that they could bathe and shower, and swim in up to 3 m depth for up to 30 minutes while wearing the CGM sensor. When the CGM sensor was removed, a new CGM sensor could be reapplied, ideally close to the original site, but with the subject's site preference taken into account. CGM sensors were single-use only.
If a subject was unable to tolerate wearing the CGM sensor for the entire duration of the study, the sensor was removed; but the subject was to remain in the study with or without continued CGM and could instead be instructed to monitor capillary plasma glucose measurements four times per day (before meals and before bedtime) and record these levels in the diary provided.
Subjects underwent continuous glucose monitoring (CGM) starting from Day −14 to Day 40 (±5 days), with sensor changes within 14-day intervals. CGM readings were used to analyze change in average CGM glucose and glucose AUC7 d, coefficient of variation as a marker of glycemic variability, and time spent in target glucose range and hypoglycemia, to enable comparison across different dose levels.

[1] = 50 μg (Days 1 to 4, not 7 days), baseline Days −8 to −2, ANCOVA
[2] = 100 μg (Days 5 to 11), baseline Days −8 to −2, ANCOVA
[3] = 100 μg (Days 5 to 11), baseline Days −8 to −2

Structure (SMILES): CCCCCCCCCCCCCCCC(=O)N[C@@H](CCC(=O)NCCCC[C@H](NC(=O)[C@H](CC(=O)O)NC(=O)[C@H](CO)NC(=O)[C@@H](NC(=O)[C@H](Cc1ccccc1)NC(=O)[C@@H](NC(=O)CNC(=O)[C@H](CCC(N)=O)NC(=O)[C@H](CO)NC(=O)[C@@H](N)Cc1c[nH]cn1)[C@@H](C)O)[C@@H](C)O)C(=O)N[C@@H](CO)C(=O)N[C@@H](CCC(=O)O)C(=O)N[C@@H](Cc1ccc(O)cc1)C(=O)N[C@@H](CC(C)C)C(=O)N[C@@H](CC(=O)O)C(=O)N[C@@H](CO)C(=O)N[C@@H](CCC(=O)O)C(=O)N[C@@H](CCCNC(=N)N)C(=O)N[C@@H](C)C(=O)N[C@@H](CCCNC(=N)N)C(=O)N[C@@H](CC(=O)O)C(=O)N[C@@H](Cc1ccccc1)C(=O)N[C@H](C(=O)N[C@@H](C)C(=O)N[C@@H](Cc1c[nH]c2ccccc12)C(=O)N[C@@H](CC(C)C)C(=O)N[C@@H](CCC(=O)O)C(=O)N[C@@H](C)C(=O)NCC(=O)NCC(=O)O)C(C)C)C(=O)O [Cotadutide]
- Percentage of time CGM Glucose in Clinically Significant Hypoglycemia (<54 mg/dL), Difference in LS Mean Change (vs Placebo) [1]: 5.28%
- Percentage of time CGM Glucose in Clinically Significant Hypoglycemia (<54 mg/dL), LS Mean Change [1]: 4.79%
- Average CGM Glucose Over 7-Day Periods, End of Dosing Period, Mean (100 μg (Days 5 to 11)): 127.599 mg/dL
- Average CGM Glucose Over 7-Day Periods, End of Dosing Period, Median (100 μg (Days 5 to 11)): 122.769 mg/dL
- Percentage of time CGM Glucose in Hyperglycemia (>180 mg/dL), End of Dosing Period, Mean (100 μg (Days 5 to 11)): 10.46%
- Percentage of time CGM Glucose in Hyperglycemia (>180 mg/dL), End of Dosing Period, Median (100 μg (Days 5 to 11)): 3.72%
- Average CGM Glucose Over 7-Day Periods, Difference in LS Mean Change (vs Placebo) [2]: -46.73 mg/dL
- Average CGM Glucose Over 7-Day Periods, LS Mean Change [2]: -36.35 mg/dL
- Percentage of time CGM Glucose in Clinically Significant Hypoglycemia (<54 mg/dL), Difference in LS Mean Change (vs Placebo) [2]: 2.25%
- Percentage of time CGM Glucose in Clinically Significant Hypoglycemia (<54 mg/dL), LS Mean Change [2]: 1.41%
- Percentage of time CGM Glucose in Hyperglycemia (>180 mg/dL), Difference in LS Mean Change (vs Placebo) [2]: −29.72%
- Percentage of time CGM Glucose in Hyperglycemia (>180 mg/dL), LS Mean Change [2]: −24.62%
- Percentage of time CGM Glucose in Hypoglycemia (<70 mg/dl), Difference in LS Mean Change (vs Placebo) [2]: 2.80%
- Percentage of time CGM Glucose in Hypoglycemia (<70 mg/dl), LS Mean Change [2]: 2.26%
- Average CGM Glucose Over 7-Day Periods, Change from Baseline to End of Dosing Period, Mean [3]: -35.628 mg/dL
- Average CGM Glucose Over 7-Day Periods, Change from Baseline to End of Dosing Period, Median [3]: -31.685 mg/dL
- Percentage of time CGM Glucose in Hyperglycemia (>180 mg/dL), Change from Baseline to End of Dosing Period, Mean [3]: −24.45%
- Percentage of time CGM Glucose in Hyperglycemia (>180 mg/dL), Change from Baseline to End of Dosing Period, Median [3]: −19.57%
- Time in target range, LS Mean Change (ANCOVA, Insulin Dose < 20 U/day): 26.25%
- Time in target range, LS Mean Change (ANCOVA, Insulin Dose ≥ 20 U/day): 3.59%
- Time in target range, LS Mean Change (ANCOVA, Total): 12.25%
- Percentage of Time CGM Glucose Within Target Range (70-180 mg/dL), Mean (Insulin Dose < 20 U/day): 94.44%
- Percentage of Time CGM Glucose Within Target Range (70-180 mg/dL), Median (Insulin Dose < 20 U/day): 97.79%
- Time in target range, Change from Baseline (Days −8 to −2), Mean (Insulin Dose < 20 U/day): 31.19%
- Time in target range, Change from Baseline (Days −8 to −2), Median (Insulin Dose < 20 U/day): 33.99%
- Time in target range, Difference in LS Mean Change (vs Placebo) (Insulin Dose < 20 U/day): 44.84%
- Percentage of Time CGM Glucose Within Target Range (70-180 mg/dL), Mean (Insulin Dose ≥ 20 U/day): 66.51%
- Percentage of Time CGM Glucose Within Target Range (70-180 mg/dL), Median (Insulin Dose ≥ 20 U/day): 77.04%
- Time in target range, Change from Baseline (Days −8 to −2), Mean (Insulin Dose ≥ 20 U/day): 2.53%
- Time in target range, Change from Baseline (Days −8 to −2), Median (Insulin Dose ≥ 20 U/day): 12.04%
- Time in target range, Difference in LS Mean Change (vs Placebo) (Insulin Dose ≥ 20 U/day): 8.32%
- Percentage of Time CGM Glucose Within Target Range (70-180 mg/dL), Mean (Total): 75.82%
- Percentage of Time CGM Glucose Within Target Range (70-180 mg/dL), Median (Total): 84.38%
- Time in target range, Change from Baseline (Days −8 to −2), Mean (Total): 11.58%
- Time in target range, Change from Baseline (Days −8 to −2), Median (Total): 14.94%
